Columns and labels:
Assay type in all cases: cell-based
[1] = system: human monocyte-derived iDC; test: Uptake by immature dendritic cells, confocal microscopy; conditions: two minutes incubation at 37° C.; labeled Compound 1 50 μg/ml, FITC-dextran 1 mg/ml
Protocol: Briefly, Oregon-green (Molecular Probes, Eugene, Oreg.)-conjugated Lipid II is included in an MtgA polymerization reaction at a ratio of 1:4 with unlabeled Lipid II to produce a 25% Oregon-green labeled polymer. The polymeric material is purified and treated as previously described. […] After incubation, extracellular probe is removed by washing the cells four times in ice cold complete DC medium (Example 5). Washed cells are then incubated at 37° C. and staining is stopped at two-minute intervals by washing in 1% paraformaldehyde fix diluted in flow wash solution (which also contains the metabolic poison sodium azide; protocol described in Example 5). Glass slide samples are prepared at each time interval and sealed with clear nail polish. Samples are stored at −20° C. and protected from light until analysis on a Radiance 2100 confocal microscope (BioRad Laboratories, Hercules, Calif.).

[2] = system: human monocyte-derived dendritic cells; test: Kinetics of uptake by immature dendritic cells, flow cytometry; conditions: 0° C., cells metabolically inactive
Protocol: In these experiments, human monocyte-derived dendritic cells are prepared as described in Example 5. Dendritic cells are resuspended at 5×10^5 cells/sample and incubated on ice at […] At 0, 2, 10, 20, 30, 40, and 50 minutes after the start of incubation, uptake is stopped by washing the cells with four washes of ice cold flow wash buffer (Example 5). The washed cells are fixed in paraformaldehyde also as described in Example 5. Stained, fixed cells are stored at 4° C. protected from light until analysis using a FC500 flow cytometer (Beckman Coulter, Miami, Fla.).

human TLR-2 = biological target: T1, human TLR-2 (Homo sapiens, UniProt O60603); conditions: 1 ng/ml, positive stimulation control
T1 construct: expressed in transfected cells; host or cells: HEK293 cells (ATCC), transiently transfected with Fugene6
T1 sequence (O60603 21-784): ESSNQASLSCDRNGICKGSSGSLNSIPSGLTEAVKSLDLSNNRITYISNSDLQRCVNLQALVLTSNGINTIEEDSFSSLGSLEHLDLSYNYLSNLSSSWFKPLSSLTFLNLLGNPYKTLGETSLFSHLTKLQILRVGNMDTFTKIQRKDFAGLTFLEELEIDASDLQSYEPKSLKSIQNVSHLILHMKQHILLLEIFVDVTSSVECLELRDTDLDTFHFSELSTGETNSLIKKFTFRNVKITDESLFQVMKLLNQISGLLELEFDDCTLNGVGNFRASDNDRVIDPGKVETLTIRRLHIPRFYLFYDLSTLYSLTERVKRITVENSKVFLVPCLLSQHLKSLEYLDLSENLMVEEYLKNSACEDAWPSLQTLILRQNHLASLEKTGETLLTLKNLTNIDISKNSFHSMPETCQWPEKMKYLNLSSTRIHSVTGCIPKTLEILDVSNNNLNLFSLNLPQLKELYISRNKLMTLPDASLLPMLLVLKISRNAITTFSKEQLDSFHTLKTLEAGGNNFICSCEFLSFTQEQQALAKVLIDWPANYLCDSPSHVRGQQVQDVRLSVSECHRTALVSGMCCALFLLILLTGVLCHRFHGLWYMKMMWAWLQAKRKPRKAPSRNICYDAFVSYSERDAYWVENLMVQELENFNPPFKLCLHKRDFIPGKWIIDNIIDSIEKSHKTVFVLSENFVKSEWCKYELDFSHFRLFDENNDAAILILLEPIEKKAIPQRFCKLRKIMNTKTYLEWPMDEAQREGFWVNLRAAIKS
From the text: These experiments involve transfecting HEK293 cells (American Type Culture Collection, Manassas, Va.) with two plasmid DNAs. The first plasmid, pcDNA3.1/Hygro (Invitrogen), contains the human TLR-2 gene. The second plasmid, pNF-κB-luc (Stratagene, La Jolla, Calif.), encodes the NF-κB gene linked to a luciferase reporter gene whose product can be followed in vitro as a direct measure of NF-κB-activation. To prepare the DNA for transfection into the cells, Fugene6 (Roche, Basel Switzerland) transfecting reagent is diluted 1:6 in OPTI-MEM (Invitrogen, Carlsbad, Calif.) growth medium. Next, 75 ng of pNF-κB-luc and 300 ng of pcDNA3.1/Hygro DNA are added to the diluted Fugene6 and the mixture is incubated at 37° C. for 30 minutes. HEK293 cells at a concentration of 10^6 cells/ml are added to the DNA/Fugene6 mixture. […] The amount of luciferase activity resulting from incubation with the compounds is evaluated by removing the growth medium from the cells and replacing it with 100 μl of RLB lysis solution (Promega, Madison, Wis.). […] The luciferase activity of each cell culture is determined in a 25 μl aliquot of cell lysate in a Victor Luminometer (Perkin Elmer Life Sciences, Shelton, Conn.) according to the manufacturer's instructions. […]

| Substance | intracellular localization in iDCs (confocal images) [1] | uptake by iDCs over time (mean fluorescence intensity) [2] | increase in luciferase activity compared with unstimulated cultures (human TLR-2) [fold] |
| --- | --- | --- | --- |
| FITC-Dextran | Localization of polymer in endocytic vacuoles | uptake is inhibited | – |
| TNFα | – | – | 22.5 |
